Assays:
[1] = Piglet average daily gain (ADG) from processing to weaning; format: in vivo, swine; conditions: piglets; for Average Daily Gain (ADG) Mean Difference: least squares means
Procedure: On day 21 post-drug injection in the sow, the body weight of each sow and piglet was recorded before weaning to calculate average daily weight gain.
Plasma cortisol concentrations and ADG were analyzed using a nonlinear mixed-effects analysis incorporating both fixed effects and random effects (PROC GLMMIX; SAS university edition v9.04.01, SAS Institute, Cary, N.C.). The population cortisol concentrations best fit a lognormal model. Time, treatment and their interaction were designated as fixed effects in the model with piglet nested in sow designated as a random effect. The effect of gender across treatments was examined using ANOVA to confirm that data from female piglets could be pooled to serve as a procedural control. Sow parity was also included as a covariate in the model. Where there was evidence of a treatment-by-time interaction (P<0.1), simple effect comparisons of LS means were conducted using the Tukey-Kramer adjustment for multiple comparisons. ADG outcomes best fit a Gaussian distribution. The effect of gender across treatments was also examined by ANOVA to clarify the effect of drug exposure from the effect of processing. For both outcomes, statistical significance was set a priori at P<0.05.
Eight piglets died between processing and weaning. Average daily gain in body weight (ADG) of the surviving piglets over the 21 d from processing to weaning was calculated by subtracting the body weight at processing from the body weight at weaning and dividing the result by the days from processing to weaning (FIG. 12 and FIG. 13). […] Specifically, ADG increased with the increasing doses of firocoxib administered to the lactating sows via injection.

in vivo = conditions: female, Yorkshire×Landrace, swine
Procedure: Tissue concentrations of firocoxib and its descyclopropylmethyl metabolite were determined using high-pressure liquid chromatography (Agilent 1100 Pump, Column Compartment and Autosampler, Agilent Technologies, Santa Clara, Calif., USA) with mass spectrometry detection (LTQ Ion Trap, Thermo Scientific, San Jose, Calif., USA). The tissue samples analysed were muscle, injection site, kidney, liver, and fat. Eight calibration spikes were prepared in blank porcine tissue in the concentration range of 0.05-10 μg/g. The tissue samples were thawed and homogenized in a Waring blender before extraction and analysis. […]
Plasma and tissue firocoxib concentrations were determined using high-pressure liquid chromatography (Agilent 1100 Pump, Column Compartment and Autosampler, Agilent Technologies, Santa Clara, Calif.) with mass spectrometry detection (LTQ Ion Trap, Thermo Scientific, San Jose, Calif.). […] Full scan MS was used for analyte detection and three fragment ions were used for quantitation of each analyte species. […] Firocoxib and d6-firocoxib were analyzed in positive ion mode. […]
For plasma samples, the calibration curves had correlation coefficients (R^2) exceeding 0.995 across the concentration range. […] The limit of quantitation of the analysis was 1.0 ng/mL, with a limit of detection of 0.2 ng/mL. […]

CC1(C)OC(=O)C(OCC2CC2)=C1c1ccc(S(C)(=O)=O)cc1 [firocoxib]
average daily gain, dose dependence ([1]; 21 d after processing, sow doses 0.5-2.0 mg/kg IM): dose-dependent increase in average daily gain
Average Daily Gain (ADG) Mean Difference ([1]; sow dose 0.5 mg/kg vs 1.0 mg/kg): 2.56 g
Average Daily Gain (ADG) Mean Difference ([1]; sow dose 0.5 mg/kg vs 1.5 mg/kg): -17.98 g
Average Daily Gain (ADG) Mean Difference ([1]; sow dose 0.5 mg/kg vs 2.0 mg/kg): -39.01 g
Average Daily Gain (ADG) Mean Difference ([1]; sow dose 1.0 mg/kg vs 1.5 mg/kg): -20.54 g
Average Daily Gain (ADG) Mean Difference ([1]; sow dose 1.0 mg/kg vs 2.0 mg/kg): -41.57 g
Average Daily Gain (ADG) Mean Difference ([1]; sow dose 1.5 mg/kg vs 2.0 mg/kg): -21.03 g
weight gain (ADG) over 21 d from processing to weaning ([1]; sow dose 2.0 mg/kg vs 0.5 mg/kg (P=0.0076) or 1.0 mg/kg (P=0.0047)): gained more weight
concentration at 21 d (in vivo): ≤ 50 ng/g

Source: US10434083B2, “Transmammary delivery of cyclooxygenase-2 inhibitors for analgesia in neonates” (Iowa State University Research Foundation, Inc., priority 2018, dated 2019)
